In ChEMBL document CHEMBL1201862, “PubChem BioAssay data set” (2004):
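1) Cells in 96-well plates. 2) Compound, 48 h, 5 concentrations. 3) Linear interpolation between surrounding doses. 4) Unreached endpoint = highest concentration. GI50 is the concentration that inhibits growth by half.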 The source made the active and inactive calls. Cut-off read from the data, not from the text of the source: active = GI50 up to about 1.1 µM and inactive = higher.

How the values were obtained:
Assay in all cases: DTP human tumour cell line panel, 48 h
SF-539 = test system: SF-539
RPMI-8226 = test system: RPMI-8226
NCI/ADR-RES = test system: NCI/ADR-RES
SK-MEL-28 = test system: SK-MEL-28
MCF7 = test system: MCF7
DMS-114 = test system: DMS-114
HT-29 = test system: HT-29
RXF 631 = test system: RXF 631
OVCAR-4 = test system: OVCAR-4
DMS-273 = test system: DMS-273
IGROV-1 = test system: IGROV-1
OVCAR-5 = test system: OVCAR-5
DU-145 = test system: DU-145
MDA-MB-231 = test system: MDA-MB-231
SF-268 = test system: SF-268
NCI-H460 = test system: NCI-H460
HL-60 = test system: HL-60
HCC 2998 = test system: HCC 2998
HOP-92 = test system: HOP-92
MDA-N = test system: MDA-N
KM-20L2 = test system: KM-20L2
COLO 205 = test system: COLO 205
MOLT-4 = test system: MOLT-4
LOX IMVI = test system: LOX IMVI
PC-3 = test system: PC-3
Hs-578T = test system: Hs-578T
SNB-75 = test system: SNB-75
SW-620 = test system: SW-620
A498 = test system: A498
KM12 = test system: KM12
SR = test system: SR
K562 = test system: K562
NCI-H23 = test system: NCI-H23
Malme-3M = test system: Malme-3M
UACC-62 = test system: UACC-62
OVCAR-8 = test system: OVCAR-8
ACHN = test system: ACHN
CAKI-1 = test system: CAKI-1
DLD-1 = test system: DLD-1
A549 = test system: A549
M14 = test system: M14
T47D = test system: T47D
SK-MEL-2 = test system: SK-MEL-2
SNB-19 = test system: SNB-19
U-251 = test system: U-251
MDA-MB-435 = test system: MDA-MB-435
SF-295 = test system: SF-295
UO-31 = test system: UO-31
LXFL 529 = test system: LXFL 529
NCI-H522 = test system: NCI-H522
SK-OV-3 = test system: SK-OV-3
786-0 = test system: 786-0
HCT-116 = test system: HCT-116
HOP-18 = test system: HOP-18
CCRF-CEM = test system: CCRF-CEM
TK-10 = test system: TK-10
EKVX = test system: EKVX
OVCAR-3 = test system: OVCAR-3
BT-549 = test system: BT-549
SN12C = test system: SN12C
NCI-H226 = test system: NCI-H226
UACC-257 = test system: UACC-257
RXF 393 = test system: RXF 393
M19-MEL = test system: M19-MEL
HOP-62 = test system: HOP-62
SK-MEL-5 = test system: SK-MEL-5

Measured: GI50

C[C@H]1CCC2C(OC(=O)[C@@H]2CN(C)C)[C@]2(C)C(=O)C=CC12O (stereo partly specified)
inactive: SF-539 3.64 µM | RPMI-8226 2.67 µM | NCI/ADR-RES 2 µM | SK-MEL-28 2.43 µM | MCF7 7.5 µM | DMS-114 2.93 µM | HT-29 4.09 µM | RXF 631 1.31 µM | OVCAR-4 5.62 µM | DMS-273 3.12 µM | IGROV-1 15.8 µM | OVCAR-5 14.1 µM | DU-145 10.8 µM | MDA-MB-231 9.55 µM | SF-268 6.79 µM | NCI-H460 12.5 µM | HL-60 1.65 µM | HCC 2998 5.2 µM | HOP-92 2.79 µM | MDA-N 3.48 µM | KM-20L2 2.17 µM | COLO 205 4.74 µM | MOLT-4 2.82 µM | LOX IMVI 4.59 µM | PC-3 14.2 µM | Hs-578T 4.27 µM | SNB-75 4.6 µM | SW-620 3.24 µM | A498 14.2 µM | KM12 4.69 µM | SR 2.47 µM | K562 3.23 µM | NCI-H23 3.26 µM | Malme-3M 3.7 µM | UACC-62 2.55 µM | OVCAR-8 1.57 µM | ACHN 2.17 µM | CAKI-1 7.06 µM | DLD-1 2.99 µM | A549 24.8 µM | M14 4.06 µM | T47D 3.2 µM | SK-MEL-2 9.44 µM | SNB-19 22.9 µM | U-251 17.5 µM | MDA-MB-435 4.47 µM | SF-295 13.2 µM | UO-31 10.9 µM | LXFL 529 3.01 µM | NCI-H522 1.32 µM | SK-OV-3 16.9 µM | 786-0 5.26 µM | HCT-116 2.86 µM | HOP-18 24.2 µM | CCRF-CEM 1.87 µM | TK-10 6.68 µM | EKVX 4.02 µM | OVCAR-3 3.76 µM | BT-549 5.37 µM | SN12C 4.09 µM | NCI-H226 7.01 µM | UACC-257 4.86 µM | RXF 393 1.65 µM | M19-MEL 4.26 µM | HOP-62 23.9 µM | SK-MEL-5 7.16 µM
